Active and inactive are the calls of the source.
What was measured:
[1] = target: T1, Voltage-gated N-type calcium channel alpha-1B subunit/Amyloid beta A4 precursor protein-binding family A member 1 (Homo sapiens, UniProt Q00975+Q02410); format: protein assay
Large T antigen = Large T antigen (Simian virus 40, UniProt P03070); format: functional, Betapolyomavirus macacae;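 note: Confirmatory-stage PubChem screen for compounds that inhibit SV40 T antigen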
[2] = target: T1, Voltage-gated N-type calcium channel alpha-1B subunit/Amyloid beta A4 precursor protein-binding family A member 1; format: protein assay; remark: listed apart in the source
[3] = target: T2, Apoptotic protease-activating factor 1 (Homo sapiens, UniProt O14727); format: functional
T2 sequence (O14727 whole entry): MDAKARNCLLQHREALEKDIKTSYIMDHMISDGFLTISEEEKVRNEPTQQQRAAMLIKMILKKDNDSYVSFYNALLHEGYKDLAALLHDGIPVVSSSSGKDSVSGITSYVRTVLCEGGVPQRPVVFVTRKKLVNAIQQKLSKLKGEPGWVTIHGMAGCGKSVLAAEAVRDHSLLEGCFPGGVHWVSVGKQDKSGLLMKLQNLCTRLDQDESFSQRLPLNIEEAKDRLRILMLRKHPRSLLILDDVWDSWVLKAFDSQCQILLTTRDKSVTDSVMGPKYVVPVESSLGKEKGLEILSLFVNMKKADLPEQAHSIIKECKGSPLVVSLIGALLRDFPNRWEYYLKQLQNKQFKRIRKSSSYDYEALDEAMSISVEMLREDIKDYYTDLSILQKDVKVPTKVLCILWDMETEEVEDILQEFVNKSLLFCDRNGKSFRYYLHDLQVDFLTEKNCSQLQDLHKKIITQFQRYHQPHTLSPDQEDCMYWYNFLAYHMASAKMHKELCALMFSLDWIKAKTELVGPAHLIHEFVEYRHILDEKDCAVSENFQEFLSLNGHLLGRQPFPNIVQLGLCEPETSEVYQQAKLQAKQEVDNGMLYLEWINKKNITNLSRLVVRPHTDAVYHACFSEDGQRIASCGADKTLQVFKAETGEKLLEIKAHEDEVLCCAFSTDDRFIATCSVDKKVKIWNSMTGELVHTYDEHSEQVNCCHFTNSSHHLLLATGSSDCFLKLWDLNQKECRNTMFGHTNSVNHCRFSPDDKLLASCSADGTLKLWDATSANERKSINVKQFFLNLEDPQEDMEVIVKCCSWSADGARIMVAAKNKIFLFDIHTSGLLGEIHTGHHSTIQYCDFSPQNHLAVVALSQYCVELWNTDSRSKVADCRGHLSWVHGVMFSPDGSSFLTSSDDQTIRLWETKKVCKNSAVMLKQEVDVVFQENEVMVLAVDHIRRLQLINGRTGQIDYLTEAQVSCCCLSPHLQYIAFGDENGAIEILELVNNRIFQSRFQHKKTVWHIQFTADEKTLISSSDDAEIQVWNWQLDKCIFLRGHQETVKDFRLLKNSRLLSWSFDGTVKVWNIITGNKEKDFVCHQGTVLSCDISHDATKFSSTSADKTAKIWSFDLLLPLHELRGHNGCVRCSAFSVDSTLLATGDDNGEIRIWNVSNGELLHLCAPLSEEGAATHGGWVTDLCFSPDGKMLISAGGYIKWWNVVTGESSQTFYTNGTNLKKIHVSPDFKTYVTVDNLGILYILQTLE

CHO-K1 = assay: (§1) Counterscreen for antagonists of the orexin 1 receptor (OX1R; HCRTR1): Homogeneous time resolved fluorescence (HTRF)-based cell-based dose response assay to identify antagonists of the parental CHO-K1 cell line. [Related pubchem assays (depositor defined):AID434989, AID435008, AID463079, AID485270, AID492963, AID492964, AID492965, AID493232, AID504699, AID504701]; format: functional; conditions: Cricetulus griseus
[4] = as §1, with “Fluorescence-based” for “Homogeneous time resolved fluorescence (HTRF)-based”, “cell-based high throughput” for “cell-based”, “CHO” for “CHO-K1”; format: functional
[5] = target: T3, Orexin/Hypocretin receptor type 1 (Homo sapiens, UniProt O43613); assay: Homogeneous Time Resolved Fluorescence (HTRF)-based cell-based high throughput dose response assay for antagonists of the orexin 1 receptor (OX1R; HCRTR1). [Related pubchem assays (depositor defined):AID434989, AID435008, AID463079, AID485270, AID492963, AID492964, AID492965, AID493232, AID504717, AID504718]; format: functional
T3 sequence (O43613 whole entry): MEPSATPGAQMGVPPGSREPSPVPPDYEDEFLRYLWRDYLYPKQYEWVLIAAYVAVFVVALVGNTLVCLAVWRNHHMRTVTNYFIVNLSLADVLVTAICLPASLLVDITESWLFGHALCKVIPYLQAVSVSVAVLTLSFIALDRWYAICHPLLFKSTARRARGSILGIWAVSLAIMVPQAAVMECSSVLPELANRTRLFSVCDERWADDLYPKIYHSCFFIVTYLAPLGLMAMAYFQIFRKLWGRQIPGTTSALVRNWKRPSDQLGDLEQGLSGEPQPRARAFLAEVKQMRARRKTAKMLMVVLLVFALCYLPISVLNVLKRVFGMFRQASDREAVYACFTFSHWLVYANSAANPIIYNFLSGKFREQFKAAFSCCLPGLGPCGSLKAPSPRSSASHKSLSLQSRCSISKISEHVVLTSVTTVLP

[6] = target: T3, Orexin/Hypocretin receptor type 1; assay: Fluorescence-based cell-based high throughput dose response assay for antagonists of the orexin 1 receptor (OX1R; HCRTR1). [Related pubchem assays (depositor defined):AID434989, AID435008, AID463079, AID485270, AID492963, AID492964, AID492965, AID493232, AID504717, AID504718]; format: functional
Orexin receptor type 2 [7] = target: T4, Orexin receptor type 2 (Homo sapiens, UniProt O43614); assay: Counterscreen assay for antagonists of the orexin 1 receptor (OX1R; HCRTR1): Fluorescence-based cell-based dose response assay for antagonists of the orexin 2 receptor (OX2R; HCRTR2), run by assay provider.; format: functional
T4 sequence (O43614 whole entry): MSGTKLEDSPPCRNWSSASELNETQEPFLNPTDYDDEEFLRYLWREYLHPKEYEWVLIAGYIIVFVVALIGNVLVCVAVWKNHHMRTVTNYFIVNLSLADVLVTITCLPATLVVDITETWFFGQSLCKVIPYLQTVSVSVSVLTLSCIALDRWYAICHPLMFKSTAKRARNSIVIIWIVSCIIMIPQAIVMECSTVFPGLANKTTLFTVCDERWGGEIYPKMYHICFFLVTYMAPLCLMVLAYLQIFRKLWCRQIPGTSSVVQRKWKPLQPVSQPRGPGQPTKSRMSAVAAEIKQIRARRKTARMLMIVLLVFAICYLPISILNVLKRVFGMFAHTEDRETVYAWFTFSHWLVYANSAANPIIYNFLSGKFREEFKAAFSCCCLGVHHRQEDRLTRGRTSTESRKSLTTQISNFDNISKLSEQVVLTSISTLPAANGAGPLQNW

Orexin receptor type 2 [8] = target: T4, Orexin receptor type 2; assay: Counterscreen assay for antagonists of the orexin 1 receptor (OX1R; HCRTR1): Homogeneous Time Resolved Fluorescence (HTRF)-based cell-based dose response assay for antagonists of the orexin 2 receptor (OX2R; HCRTR2), run by assay provider.; format: functional
[9] = target: Glucose-6-phosphate 1-dehydrogenase (Homo sapiens, UniProt P11413); assay: human G6PD enzyme inhibitors, dose response, selectivity assay for P. falciparum G6PD inhibitor project, biochemical, fluorescence (AID 504792); format: functional
[10] = target: T5, Replicative DNA helicase DnaB (Mycobacterium tuberculosis, UniProt P9WMR3); assay: DnaB intein splicing inhibitors, dose response, biochemical, cell-free fluorescence (AID 449749); format: functional
T5 sequence (P9WMR3 whole entry): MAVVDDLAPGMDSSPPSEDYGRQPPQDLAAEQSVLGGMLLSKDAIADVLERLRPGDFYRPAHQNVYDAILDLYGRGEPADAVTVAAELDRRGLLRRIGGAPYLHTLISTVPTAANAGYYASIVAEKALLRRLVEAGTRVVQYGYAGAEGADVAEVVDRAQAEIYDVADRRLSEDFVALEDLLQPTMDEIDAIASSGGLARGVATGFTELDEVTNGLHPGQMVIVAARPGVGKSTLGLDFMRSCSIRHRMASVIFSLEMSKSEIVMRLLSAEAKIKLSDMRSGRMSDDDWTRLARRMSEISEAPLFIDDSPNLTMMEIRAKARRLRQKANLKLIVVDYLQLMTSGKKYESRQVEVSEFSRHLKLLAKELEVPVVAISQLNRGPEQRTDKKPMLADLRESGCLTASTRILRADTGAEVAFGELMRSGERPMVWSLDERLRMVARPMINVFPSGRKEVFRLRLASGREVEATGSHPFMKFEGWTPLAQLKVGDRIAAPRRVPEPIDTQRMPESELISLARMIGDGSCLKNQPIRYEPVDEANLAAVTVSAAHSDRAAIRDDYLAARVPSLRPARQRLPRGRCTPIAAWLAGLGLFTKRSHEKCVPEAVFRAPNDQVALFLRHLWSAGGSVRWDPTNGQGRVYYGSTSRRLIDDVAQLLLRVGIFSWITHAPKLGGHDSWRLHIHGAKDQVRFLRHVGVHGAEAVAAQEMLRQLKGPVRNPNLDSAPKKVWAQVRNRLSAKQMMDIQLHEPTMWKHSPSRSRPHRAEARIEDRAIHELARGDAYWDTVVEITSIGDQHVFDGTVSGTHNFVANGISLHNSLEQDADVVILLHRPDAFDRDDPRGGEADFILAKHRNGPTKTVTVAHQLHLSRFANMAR

Protein RecA = target: T6, Protein RecA (Mycobacterium tuberculosis, UniProt P9WHJ3); assay: Fluorescence Cell-Free Homogeneous Dose Retest to Identify Inhibitors of RecA-Intein Splicing Activity. [Related pubchem assays (depositor defined):AID2097, AID2223, AID489010, AID492950]; format: functional
T6 sequence (P9WHJ3 whole entry): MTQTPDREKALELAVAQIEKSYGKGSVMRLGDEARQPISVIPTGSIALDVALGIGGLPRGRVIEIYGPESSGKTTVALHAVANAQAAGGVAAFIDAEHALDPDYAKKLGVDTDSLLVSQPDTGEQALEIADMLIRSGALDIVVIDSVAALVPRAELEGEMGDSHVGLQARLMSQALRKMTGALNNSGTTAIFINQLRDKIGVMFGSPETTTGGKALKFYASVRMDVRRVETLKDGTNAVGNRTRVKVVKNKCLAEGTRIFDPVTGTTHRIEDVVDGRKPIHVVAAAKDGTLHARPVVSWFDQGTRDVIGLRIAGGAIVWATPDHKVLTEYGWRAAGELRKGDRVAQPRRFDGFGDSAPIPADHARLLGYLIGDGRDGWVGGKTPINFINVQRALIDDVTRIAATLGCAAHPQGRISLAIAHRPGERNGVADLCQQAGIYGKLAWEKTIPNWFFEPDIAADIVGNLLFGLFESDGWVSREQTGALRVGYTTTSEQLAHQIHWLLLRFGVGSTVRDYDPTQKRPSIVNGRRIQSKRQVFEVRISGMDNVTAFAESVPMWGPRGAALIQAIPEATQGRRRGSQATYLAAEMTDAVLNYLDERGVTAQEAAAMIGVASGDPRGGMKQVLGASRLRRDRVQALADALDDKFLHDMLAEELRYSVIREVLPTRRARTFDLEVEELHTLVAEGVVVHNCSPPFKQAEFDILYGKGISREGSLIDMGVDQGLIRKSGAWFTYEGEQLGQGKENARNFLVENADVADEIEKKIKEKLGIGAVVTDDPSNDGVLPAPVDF

T1 sequence (Q00975 whole entry): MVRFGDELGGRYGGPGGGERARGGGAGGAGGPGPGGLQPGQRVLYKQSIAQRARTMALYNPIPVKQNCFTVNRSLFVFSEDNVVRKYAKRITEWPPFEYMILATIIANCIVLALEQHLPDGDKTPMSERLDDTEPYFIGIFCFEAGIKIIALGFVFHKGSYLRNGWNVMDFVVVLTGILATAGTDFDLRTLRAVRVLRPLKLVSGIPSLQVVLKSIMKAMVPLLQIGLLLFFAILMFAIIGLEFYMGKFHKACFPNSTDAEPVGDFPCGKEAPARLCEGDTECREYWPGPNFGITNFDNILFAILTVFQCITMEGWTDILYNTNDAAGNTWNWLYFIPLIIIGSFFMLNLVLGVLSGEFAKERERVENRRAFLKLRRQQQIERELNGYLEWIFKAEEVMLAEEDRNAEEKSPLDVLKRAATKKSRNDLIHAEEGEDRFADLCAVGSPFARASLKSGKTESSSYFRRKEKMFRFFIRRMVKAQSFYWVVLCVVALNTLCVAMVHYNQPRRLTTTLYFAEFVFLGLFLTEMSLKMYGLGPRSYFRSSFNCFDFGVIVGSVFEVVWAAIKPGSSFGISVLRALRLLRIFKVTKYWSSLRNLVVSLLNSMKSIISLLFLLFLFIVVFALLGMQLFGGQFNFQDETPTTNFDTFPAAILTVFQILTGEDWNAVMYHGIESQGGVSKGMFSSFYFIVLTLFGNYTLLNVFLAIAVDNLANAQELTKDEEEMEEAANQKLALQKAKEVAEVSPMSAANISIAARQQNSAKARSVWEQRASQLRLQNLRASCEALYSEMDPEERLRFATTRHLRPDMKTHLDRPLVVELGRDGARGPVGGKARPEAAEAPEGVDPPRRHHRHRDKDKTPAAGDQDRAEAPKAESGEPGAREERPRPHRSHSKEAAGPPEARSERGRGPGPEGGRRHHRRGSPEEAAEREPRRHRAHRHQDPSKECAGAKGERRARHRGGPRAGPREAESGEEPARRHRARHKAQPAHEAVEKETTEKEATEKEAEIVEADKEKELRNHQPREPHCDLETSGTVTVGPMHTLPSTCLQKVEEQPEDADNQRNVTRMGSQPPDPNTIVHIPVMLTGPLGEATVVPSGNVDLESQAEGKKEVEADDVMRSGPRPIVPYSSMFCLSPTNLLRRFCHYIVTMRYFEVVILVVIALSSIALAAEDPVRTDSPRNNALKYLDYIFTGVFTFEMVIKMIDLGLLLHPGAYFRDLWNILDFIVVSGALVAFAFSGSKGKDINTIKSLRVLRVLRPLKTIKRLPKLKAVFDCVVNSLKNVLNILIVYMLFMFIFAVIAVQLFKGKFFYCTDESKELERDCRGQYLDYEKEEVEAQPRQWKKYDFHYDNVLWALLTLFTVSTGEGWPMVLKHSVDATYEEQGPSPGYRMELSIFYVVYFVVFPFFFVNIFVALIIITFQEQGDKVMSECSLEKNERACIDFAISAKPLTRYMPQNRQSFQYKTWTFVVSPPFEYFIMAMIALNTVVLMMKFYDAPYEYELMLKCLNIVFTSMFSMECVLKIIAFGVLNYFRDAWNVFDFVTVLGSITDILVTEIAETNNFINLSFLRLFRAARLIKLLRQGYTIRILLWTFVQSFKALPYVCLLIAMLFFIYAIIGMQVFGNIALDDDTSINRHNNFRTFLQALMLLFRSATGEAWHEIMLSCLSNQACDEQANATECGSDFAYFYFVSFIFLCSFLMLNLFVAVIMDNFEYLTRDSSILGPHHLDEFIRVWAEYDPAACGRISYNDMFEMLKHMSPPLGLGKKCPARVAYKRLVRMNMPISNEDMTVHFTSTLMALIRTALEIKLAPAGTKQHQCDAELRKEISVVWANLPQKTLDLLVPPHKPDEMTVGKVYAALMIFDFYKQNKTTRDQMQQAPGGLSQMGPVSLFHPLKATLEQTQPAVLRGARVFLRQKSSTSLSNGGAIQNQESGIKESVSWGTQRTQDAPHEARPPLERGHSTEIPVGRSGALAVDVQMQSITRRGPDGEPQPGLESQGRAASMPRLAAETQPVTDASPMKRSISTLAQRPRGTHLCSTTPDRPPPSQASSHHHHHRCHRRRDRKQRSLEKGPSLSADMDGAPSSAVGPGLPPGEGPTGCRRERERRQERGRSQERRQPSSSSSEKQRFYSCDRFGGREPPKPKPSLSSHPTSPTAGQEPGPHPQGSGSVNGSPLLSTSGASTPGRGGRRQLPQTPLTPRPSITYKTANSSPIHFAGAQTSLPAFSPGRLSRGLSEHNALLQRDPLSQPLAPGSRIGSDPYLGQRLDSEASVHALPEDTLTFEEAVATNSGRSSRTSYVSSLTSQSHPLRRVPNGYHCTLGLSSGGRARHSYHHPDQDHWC
T1 sequence (Q02410 whole entry): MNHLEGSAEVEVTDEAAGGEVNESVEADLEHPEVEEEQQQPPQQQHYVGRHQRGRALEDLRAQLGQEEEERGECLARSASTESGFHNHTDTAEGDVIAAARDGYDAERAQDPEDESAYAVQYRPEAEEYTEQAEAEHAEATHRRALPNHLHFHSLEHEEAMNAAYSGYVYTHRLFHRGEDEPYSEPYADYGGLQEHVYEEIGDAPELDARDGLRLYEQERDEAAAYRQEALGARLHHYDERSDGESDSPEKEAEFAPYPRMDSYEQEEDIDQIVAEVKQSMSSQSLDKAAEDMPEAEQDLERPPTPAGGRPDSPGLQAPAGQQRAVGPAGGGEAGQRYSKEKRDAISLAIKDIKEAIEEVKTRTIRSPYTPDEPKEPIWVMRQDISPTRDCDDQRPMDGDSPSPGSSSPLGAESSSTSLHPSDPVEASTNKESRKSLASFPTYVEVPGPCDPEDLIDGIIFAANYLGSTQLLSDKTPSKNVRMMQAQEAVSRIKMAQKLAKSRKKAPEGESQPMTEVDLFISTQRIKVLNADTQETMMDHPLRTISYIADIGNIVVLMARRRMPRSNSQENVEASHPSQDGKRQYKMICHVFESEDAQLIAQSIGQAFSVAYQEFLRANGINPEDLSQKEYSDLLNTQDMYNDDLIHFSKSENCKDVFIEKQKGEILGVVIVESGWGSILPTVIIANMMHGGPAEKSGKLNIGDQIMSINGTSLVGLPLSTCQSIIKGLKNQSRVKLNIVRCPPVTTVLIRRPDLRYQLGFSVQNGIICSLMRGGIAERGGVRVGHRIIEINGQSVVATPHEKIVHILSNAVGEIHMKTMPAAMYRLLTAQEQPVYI
Large T antigen, sequence (P03070 whole entry): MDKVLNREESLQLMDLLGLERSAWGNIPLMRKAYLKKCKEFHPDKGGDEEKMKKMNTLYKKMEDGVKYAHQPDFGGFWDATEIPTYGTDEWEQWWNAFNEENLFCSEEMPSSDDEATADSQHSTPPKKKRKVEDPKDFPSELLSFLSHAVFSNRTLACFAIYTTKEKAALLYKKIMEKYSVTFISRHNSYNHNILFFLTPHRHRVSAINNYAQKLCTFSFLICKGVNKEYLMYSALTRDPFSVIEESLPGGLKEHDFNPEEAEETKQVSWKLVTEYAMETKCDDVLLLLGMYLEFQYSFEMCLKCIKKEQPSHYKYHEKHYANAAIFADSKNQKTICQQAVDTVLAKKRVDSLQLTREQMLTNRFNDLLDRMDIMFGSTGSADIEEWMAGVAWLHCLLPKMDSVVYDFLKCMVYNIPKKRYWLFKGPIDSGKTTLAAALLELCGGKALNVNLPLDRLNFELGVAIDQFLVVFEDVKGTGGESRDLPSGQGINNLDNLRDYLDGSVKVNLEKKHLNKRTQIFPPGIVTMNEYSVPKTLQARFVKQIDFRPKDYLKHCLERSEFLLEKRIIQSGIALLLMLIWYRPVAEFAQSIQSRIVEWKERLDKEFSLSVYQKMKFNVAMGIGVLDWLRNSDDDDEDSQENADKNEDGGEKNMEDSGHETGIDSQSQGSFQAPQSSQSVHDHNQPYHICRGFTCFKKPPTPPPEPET
Glucose-6-phosphate 1-dehydrogenase, sequence (P11413 whole entry): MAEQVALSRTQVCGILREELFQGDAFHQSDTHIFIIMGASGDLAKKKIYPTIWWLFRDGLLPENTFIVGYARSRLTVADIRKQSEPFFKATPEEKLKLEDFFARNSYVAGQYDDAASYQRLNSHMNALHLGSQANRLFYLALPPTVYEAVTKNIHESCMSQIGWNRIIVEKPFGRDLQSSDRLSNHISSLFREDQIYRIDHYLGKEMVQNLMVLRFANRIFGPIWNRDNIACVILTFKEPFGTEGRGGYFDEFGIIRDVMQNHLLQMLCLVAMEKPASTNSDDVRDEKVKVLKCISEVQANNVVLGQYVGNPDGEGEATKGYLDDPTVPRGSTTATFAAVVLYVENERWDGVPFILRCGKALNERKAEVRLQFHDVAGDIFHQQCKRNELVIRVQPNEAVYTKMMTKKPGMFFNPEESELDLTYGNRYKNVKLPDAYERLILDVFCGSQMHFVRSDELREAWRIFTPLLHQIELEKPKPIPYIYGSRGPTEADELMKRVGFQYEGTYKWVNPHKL

Structure (SMILES) | IC50 [1] | IC50 (Large T antigen) | IC50 [2] | IC50 [3] | IC50 (CHO-K1) | IC50 [4] | IC50 [5] | IC50 [6] | IC50 (Orexin receptor type 2 [7]) | IC50 (Orexin receptor type 2 [8]) | IC50 [9] | AC50 [10] | EC50 (Protein RecA)
CC1(C)[N+]([O-])=c2ccc([N+](=O)[O-])cc2=[N+]1[O-].NO | 22.1 µM (active) | 6.55 µM (active) | 0.26 µM (active) | 11.7 µM (active) | – | – | – | – | – | – | – | – | –
COC(=O)C1=C(c2ccccc2OCc2ccccc2)C[C@@H]2CC[C@H]1N2C(=O)NCCOc1ccccc1Cl | – | – | – | – | > 66.2 µM (inactive) | 48.6 µM (inactive) | 3.71 µM (active) | > 16.6 µM (inactive) | 3.9 µM (active) | > 50 µM (inactive) | – | – | –
Nc1ccc(N(CCO)CCO)cc1 | – | – | – | 88.3 µM (active) | – | – | – | – | – | – | > 80 µM (inactive) | 256 µM (active) | > 380 µM (inconclusive)
Cc1ccccc1NC(=O)C1CCCN1S(=O)(=O)c1ccccc1C(F)(F)F (stereo not given) | – | – | – | – | > 66.2 µM (inactive) | > 49.8 µM (inactive) | 0.352 µM (active) | 4.95 µM (active) | 10.1 µM (inactive) | 2.34 µM (active) | – | – | –

From ChEMBL document CHEMBL1201862, “PubChem BioAssay data set” (2004)
